≈ marks a conversion by molar mass, not a printed value. Calls of active or inactive are those of the source. No cut-off for these calls is given here.
What was measured:
Type in all cases: functional
[1] = Inhibition of TNF-alpha was tested in HPBMC (Human Peripheral Blood Mononuclear Cells); inactive
[2] = species: Homo sapiens; experiment: (§1) Cytotoxicity in HPBMC (Human Peripheral Blood Mononuclear Cells); Not active
[3] = species: Homo sapiens; experiment: Inhibition efficacy of TNF-alpha was tested in HPBMC (Human Peripheral Blood Mononuclear Cells); Not active
[4] = Inhibition of TNF-alpha was tested in HPBMC (Human Peripheral Blood Mononuclear Cells)
[5] = (§2) Cytotoxicity in HPBMC (Human Peripheral Blood Mononuclear Cells); parameters: concentration or dose not given beside the values
[6] = as §2
[7] = Inhibition efficacy of TNF-alpha was tested in HPBMC (Human Peripheral Blood Mononuclear Cells); parameters: concentration or dose not given beside the values
[8] = Inhibition of TNF-alpha was tested in HPBMC (Human Peripheral Blood Mononuclear Cells); Inactive
[9] = Inhibition of TNF-alpha was tested in HPBMC (Human Peripheral Blood Mononuclear Cells); In active
[10] = as §1

Row | SMILES | IC50 [1] | IC50 [4] | IC50 [9] | Efficacy [2] | Efficacy [3] | Efficacy [5] | EC50 [6] | Efficacy [7] | IC50 [8] | EC50 [10]
1 | C=C[C@@]1(C)CC(=O)[C@]2(O)[C@@]3(C)[C@@H](O)CCC(C)(C)[C@@H]3[C@H](O)[C@H](OC(C)=O)[C@@]2(C)O1 [COLFORSIN] | Not Active |  |  | inactive | inactive |  |  |  |  | 
2 | C=C[C@@]1(C)CCCC2=C1CC[C@@H]1[C@](C)(CO)CCC[C@@]21C |  | 3.1 µg/mL (≈ 10.7 µM) |  |  |  | 99% | 3.4 µg/mL (≈ 11.8 µM) | 99% |  | 
3 | C[C@]1(C(=O)O)CCC[C@]2(C)c3cc(O)ccc3CC[C@@H]12 [PODOCARIC ACID] |  |  |  | inactive | inactive |  |  |  | Not Active | 
4 | C=C[C@@]1(C)CCCC2=C1CC[C@@H]1[C@](C)(C(=O)O)CCC[C@@]21C |  | 2.8 µg/mL (≈ 9.26 µM) |  |  |  | 99% | 2.2 µg/mL (≈ 7.27 µM) | 98% |  | 
5 | C=C[C@@]1(C)CCCC2=C1CC[C@@H]1[C@](C)(C(=O)OC)CCC[C@@]21C |  | 0.6 µg/mL (≈ 1.9 µM) |  | inactive |  |  |  | 47% |  | 

The next lines start with results.

Row | IC50 [1] | IC50 [4] | IC50 [9] | SMILES | Efficacy [2] | Efficacy [3] | Efficacy [5] | EC50 [6] | Efficacy [7] | IC50 [8] | EC50 [10]
6 |  | 5.7 µg/mL (≈ 18.8 µM) |  | C=C[C@@]1(C)CCC=C2[C@H]1CC[C@@H]1[C@](C)(C(=O)O)CCC[C@@]21C |  |  | 66% | 7.8 µg/mL (≈ 25.8 µM) | 90% |  | 
7 |  | 2.3 µg/mL (≈ 7.97 µM) |  | C=C[C@@]1(C)CCC=C2[C@H]1CC[C@@H]1[C@](C)(CO)CCC[C@@]21C | inactive |  |  |  | 38% |  | 
8 |  | 2.2 µg/mL (≈ 7.63 µM) |  | C=C[C@]1(C)CCC=C2[C@H]1CC[C@@H]1[C@](C)(CO)CCC[C@@]21C |  |  | 93% | 2.3 µg/mL (≈ 7.97 µM) | 99% |  | 
9 |  |  | Not Active | COC(=O)[C@]1(C)CCC[C@@]2(C)C3=CCC[C@](C)(CO)[C@@H]3CC[C@H]12 | inactive | inactive |  |  |  |  | Not Active
10 |  | 3.7 µg/mL (≈ 12.2 µM) |  | C=C[C@]1(C)CCC=C2[C@H]1CC[C@@H]1[C@](C)(C(=O)O)CCC[C@@]21C |  |  | 35% |  | 86% |  | 
11 |  | 0.7 µg/mL (≈ 2.21 µM) |  | C=C[C@@]1(C)CCC=C2[C@H]1CC[C@@H]1[C@](C)(C(=O)OC)CCC[C@@]21C |  |  | 98% | 1.8 µg/mL (≈ 5.69 µM) | 99% |  | 
12 |  | 1.4 µg/mL (≈ 4.42 µM) |  | C=C[C@]1(C)CCC=C2[C@H]1CC[C@@H]1[C@](C)(C(=O)OC)CCC[C@@]21C |  |  | 71% | 3.1 µg/mL (≈ 9.8 µM) | 99% |  | 

Reference: ChEMBL document CHEMBL1136231, “Synthesis of a novel family of diterpenes and their evaluation as anti-inflammatory agents” (Bioorg Med Chem Lett, 2003)
